Measurements reported in ChEMBL document CHEMBL1201862, “PubChem BioAssay data set” (2004).
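Method: 48-hour compound exposure of cells in 96-well plates, five concentrations, linear interpolation of endpoints. GI50 is the concentration that inhibits growth by half.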 The source made the active and inactive calls. No stated cut-off is given here; in the data, active = GI50 up to about 1.1 µM and inactive = higher.

What was measured:
Experiment in all cases: inhibition of tumour cell growth, NCI panel, 48 h
SW-620 = system: SW-620
M19-MEL = system: M19-MEL
DMS-273 = system: DMS-273
SNB-19 = system: SNB-19
HT-29 = system: HT-29
SK-MEL-28 = system: SK-MEL-28
Malme-3M = system: Malme-3M
RPMI-8226 = system: RPMI-8226
A498 = system: A498
HCT-15 = system: HCT-15
K562 = system: K562
OVCAR-5 = system: OVCAR-5
UACC-62 = system: UACC-62
NCI-H522 = system: NCI-H522
CAKI-1 = system: CAKI-1
U-251 = system: U-251
RXF 393 = system: RXF 393
SK-OV-3 = system: SK-OV-3
NCI-H460 = system: NCI-H460
UACC-257 = system: UACC-257
LXFL 529 = system: LXFL 529
SK-MEL-5 = system: SK-MEL-5
SK-MEL-2 = system: SK-MEL-2
OVCAR-3 = system: OVCAR-3
OVCAR-8 = system: OVCAR-8
KM-20L2 = system: KM-20L2
DLD-1 = system: DLD-1
EKVX = system: EKVX
SNB-75 = system: SNB-75
HOP-62 = system: HOP-62
HCT-116 = system: HCT-116
SR = system: SR
786-0 = system: 786-0
SF-295 = system: SF-295
OVCAR-4 = system: OVCAR-4
SN12C = system: SN12C
UO-31 = system: UO-31
COLO 205 = system: COLO 205
SNB-78 = system: SNB-78
M14 = system: M14
NCI-H226 = system: NCI-H226
HCC 2998 = system: HCC 2998
DMS-114 = system: DMS-114
NCI-H23 = system: NCI-H23
SF-539 = system: SF-539
TK-10 = system: TK-10
KM12 = system: KM12
A549 = system: A549
HOP-18 = system: HOP-18
CCRF-CEM = system: CCRF-CEM
SF-268 = system: SF-268
IGROV-1 = system: IGROV-1
MOLT-4 = system: MOLT-4
ACHN = system: ACHN
LOX IMVI = system: LOX IMVI
XF498 = system: XF498
HL-60 = system: HL-60

Measured: GI50

Cc1nc2ccccc2[s+]c1-c1cnc(NC#N)nc1C(=O)Nc1cccc(Cl)c1
inactive: SW-620 > 100 µM | M19-MEL > 100 µM | DMS-273 > 100 µM | SNB-19 > 100 µM | HT-29 > 100 µM | SK-MEL-28 > 100 µM | Malme-3M > 100 µM | RPMI-8226 > 100 µM | A498 > 100 µM | K562 > 100 µM | OVCAR-5 > 100 µM | UACC-62 > 100 µM | NCI-H522 > 100 µM | CAKI-1 > 100 µM | U-251 > 100 µM | RXF 393 > 100 µM | SK-OV-3 > 100 µM | NCI-H460 > 100 µM | UACC-257 > 100 µM | LXFL 529 > 100 µM | SK-MEL-5 > 100 µM | SK-MEL-2 > 100 µM | OVCAR-3 > 100 µM | OVCAR-8 > 100 µM | KM-20L2 > 100 µM | DLD-1 > 100 µM | EKVX > 100 µM | SNB-75 > 100 µM | HOP-62 > 100 µM | HCT-116 > 100 µM | SR > 100 µM | 786-0 > 100 µM | SF-295 > 100 µM | OVCAR-4 > 100 µM | SN12C > 100 µM | UO-31 > 100 µM | COLO 205 > 100 µM | SNB-78 > 100 µM | M14 > 100 µM | NCI-H226 > 100 µM | HCC 2998 > 100 µM | DMS-114 > 100 µM | NCI-H23 > 100 µM | SF-539 > 100 µM | TK-10 > 100 µM | KM12 > 100 µM | A549 > 100 µM | HOP-18 > 100 µM | CCRF-CEM > 100 µM | SF-268 > 100 µM | IGROV-1 > 100 µM | MOLT-4 > 100 µM | ACHN > 100 µM | LOX IMVI > 100 µM
> 100 µM: HCT-15

C=CCNC(=S)N1CC(C)C(=O)Nc2ccccc21 (centres undefined)
inactive: SW-620 > 100 µM | DMS-273 > 100 µM | SNB-19 > 100 µM | HT-29 > 100 µM | SK-MEL-28 > 100 µM | Malme-3M > 100 µM | RPMI-8226 > 100 µM | K562 > 100 µM | OVCAR-5 > 100 µM | UACC-62 > 100 µM | NCI-H522 > 100 µM | XF498 > 100 µM | U-251 > 100 µM | RXF 393 > 100 µM | HL-60 > 100 µM | NCI-H460 > 100 µM | LXFL 529 > 100 µM | SK-MEL-5 > 100 µM | SK-MEL-2 > 100 µM | OVCAR-3 > 100 µM | OVCAR-8 > 100 µM | KM-20L2 > 100 µM | EKVX > 100 µM | SNB-75 35.5 µM | HOP-62 > 100 µM | HCT-116 > 100 µM | SR > 100 µM | 786-0 > 100 µM | SF-295 > 100 µM | OVCAR-4 > 100 µM | SN12C > 100 µM | UO-31 > 100 µM | COLO 205 > 100 µM | SNB-78 > 100 µM | M14 > 100 µM | NCI-H226 > 100 µM | DMS-114 > 100 µM | NCI-H23 > 100 µM | SF-539 > 100 µM | TK-10 > 100 µM | KM12 > 100 µM | A549 > 100 µM | CCRF-CEM > 100 µM | SF-268 > 100 µM | IGROV-1 > 100 µM | MOLT-4 > 100 µM | ACHN > 100 µM | LOX IMVI > 100 µM
> 100 µM: HCT-15
